Measured values published in article PMC11052077, “Discovery of Dolutegravir Derivative against Liver Cancer via Inducing Autophagy and DNA Damage” (Molecules, 2024).

What was measured:
Type in all cases: cell-based, human
γ-H2AX in HepG2 cells = assay: γ-H2AX immunofluorescence, HepG2; conditions: HepG2, 72 h
Experimental: (§1) The phosphorylation of H2AX serves as a highly specific and sensitive molecular marker for DNA damage. Through Western blotting, we have confirmed that compounds 5e and 5p induce DNA damage in Huh7 and HepG2 cells. To further substantiate the inhibitory effect of compounds 5e and 5p on Huh7 cells, immunofluorescence was employed to assess their correlation with γ-H2AX.
The HepG2 cells (1 × 10^6) were plated in laser confocal dishes (Nest, Wuxi, China), before Compound 5e and 5p were treated for 72 h. Then, 4% paraformaldehyde was added to each laser confocal dishes for 20 min, after rinsing with PBS. The Triton X-100 was used to penetrate the cells for 20 min. Before the cells were incubated with p-H2AX (Cell Signaling Technology, Danvers, MA, USA) at 1:800 dilution at 4 °C overnight, goat serum was used to block for 30 min. Subsequently, the HepG2 were rinsed with PBS and incubated with Alexa Fluor 488 (Proteintech, Wuhan, China) at a 1:1000 dilution in the dark at room temperature for 1 h. DAPI was added to each laser to stain the cell nucleus for 5 min. Then, the cells were observed under a laser confocal microscope (Nikon, Tokyo, Japan), after rinsing with PBS.

Huh7 cells = assay: LIVE/DEAD staining (live and dead cell measurement); conditions: 5 μM or 10 μM, 24 h
Experimental: To further assess the anti-proliferative activity of dolutegravir derivatives, LIVE/DEAD staining was conducted. Huh7 cells were treated with 5 μM or 10 μM of 5e and 5p for 24 h, followed by live and dead cell imaging and quantification. […] This may be attributed to significant cell proliferation suppression at 10 μM concentration, leading to a limited number of viable cells. Furthermore, to validate the impact of dolutegravir derivatives on cell proliferation, a plate clone formation assay was performed. Cells were exposed to various concentrations (0, 2, 4, 8, 16, and 32 μM) of 5e or 5p.
Huh7 cells with a density of 5 × 10^3 cells/well were seeded on 96-well plates. Then, different concentrations (0, 5 μM, 10 μM) of 5e or 5p were treated for 24 h. Cells were then stained with the LIVE/DEAD Assay Kit, observed and photographed using the fluorescent microscope.

γ-H2AX in Huh7 cells = assay: γ-H2AX immunofluorescence / DNA damage staining, Huh7; conditions: Huh7, 5, 10, 20 μM, 24 h
Experimental: as §1
The Huh7 cells with a density of 5 × 10^3 cells per well were seeded in a 96-well plate for overnight incubation. Then, different concentrations (0, 5 μM, 10 μM, 20 μM) of the compounds 5e and 5p were added to cells for 24 h. A DNA damage detection kit was used to dye the cells, and cells were observed and photographed by a fluorescent microscope. Cell nucleus is stained blue, and DNA damage is shown as green fluorescence.

γ-H2AX = assay: Western blot, γ-H2AX; conditions: 2, 4, 8 μM, 48 h, Huh7, western blot
Experimental: To elucidate the impact of compounds 5e and 5p on the regulation of cell proliferation, we examined the expression levels of key proteins involved in cell growth processes, encompassing autophagy, apoptosis, cell cycle, and DNA damage (Figure 7).
Protein expression levels were measured by western blot. Huh7 cells were cultured in 12-well plates and different concentrations (0, 2, 4, 8 μM) of 5e and 5p were added for 48 h. Proteins were extracted from whole cells using radio-immunoprecipitation assay (RIPA) buffer containing a protease/phosphatase inhibitor cocktail (CST). Then, 10–15% sodium dodecyl sulfate polyacrylamide gel electrophoresis and nitrocellulose membranes (Millipore) were employed to separate and collect proteins. Antibodies used include LC3 (3868s, CST), Caspase3 (9662, CST), cyclin D (2922s, CST), cyclin E (20808s, CST), γH2AX (9718s, CST), β-Catenin (9562s, CST), and β-actin (4967s, CST).

## COc1c2n(cc(C(=O)Nc3cccc(-c4cn(-c5cccc(C(F)(F)F)c5)nn4)c3)c1=O)CC1OCCC(C)N1C2=O (centres unmarked) [Compound 5p]
γ-H2AX in HepG2 cells
  γ-H2AX expression by immunofluorescence: increased the expression of γ-H2AX
Huh7 cells
  live Huh7 cells (LIVE/DEAD staining): decreased with increasing concentration
  ratio of dead to live cells: increased compared to the untreated group
γ-H2AX in Huh7 cells
  γ-H2AX expression by immunofluorescence: increased the expression of γ-H2AX
γ-H2AX
  γ-H2AX protein expression (DNA damage): induction of γ-H2AX
